Measurements reported in PubChem BioAssay AID1205 (EPA DSSTox, 2008).
Calls of active or inactive are those of the source.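 How the source made its calls: active means tumour findings in long-term animal cancer tests in more than one sex, species or organ; inactive means no tumour finding and more than one negative test.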

test: DSSTox (CPDBAS) Carcinogenic Potency Database Summary MultiCellCall Results; conditions: animal carcinogenicity bioassays, multi-cell call summary
Procedure, shortened: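 Summary call drawn from chronic long-term cancer bioassays in rats, mice, hamsters, dogs and nonhuman primates, using the most positive result per sex-species. Score: multispecies=50, multisex=30, multisite=20, summed for combinations.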

Structure (SMILES) | outcome
COc1cc2c(c3oc(=O)c4c(c13)CCOC4=O)C1C=COC1O2 (centres undefined) | active; multisite active; multispecies active
O=S(O)S(=O)(=O)O | inactive; multisex inactive
C#C[C@]1(O)CC[C@H]2[C@@H]3CCC4=C(CCC(=O)C4)[C@H]3CC[C@@]21C | inactive; multisex inactive
ClC(Cl)=C(Cl)Cl | active; multisite active; multisex active; multispecies active
Cc1cc(O)c2c(c1O)C(=O)C13C(=C2O)C(=O)C2C(O)C1C1C(O)C3C(=O)C3=C(O)c4c(O)cc(C)c(O)c4C(=O)C321 (centres undefined) | active; multisex active
CCN(CC(F)(F)F)N=O | active; multisite active
Cc1cccc(Nc2cc(Cl)nc(SCC(=O)O)n2)c1C | active; multispecies active
CC(C)=CCl | active; multisite active; multisex active; multispecies active
C=CCOc1ccc(CC(=O)O)cc1Cl | inactive; multisex inactive
CCN(C#N)N=O | active; multisex active
NCCS(=O)(=O)O | inactive; multisex inactive
CN(C)c1ccc(C(=N)c2ccc(N(C)C)cc2)cc1 | active; multisex active; multispecies active
CC(=O)Nc1ccc(CC(=O)O)cc1 | inactive; multisex inactive; multispecies inactive
CCN(N=O)C(=O)NCCO | active; multisite active; multisex active; multispecies active
C[N+](=O)[O-] | active; multisite active; multisex active; multispecies active
O=C(O)CCC(=O)O | inactive; multisex inactive
CC(O)CN(CCO)N=O (centres undefined) | active; multisite active
O=Cc1ccco1 | active; multisex active; multispecies active
CN1C(C(=O)Nc2ccccn2)=C(O)c2sc(Cl)cc2S1(=O)=O | inactive; multisex inactive
ClCC(Cl)CCl | active; multisite active; multisex active; multispecies active
CCOC(=O)CC(SP(=S)(OC)OC)C(=O)OCC (centres undefined) | inactive; multisex inactive; multispecies inactive
CCN(C)N=O | active; multisite active
O=C(O)c1ccncc1 | inactive; multisex inactive; multispecies inactive
CC(=O)Nc1ccc2c(c1)Cc1cc(NC(C)=O)ccc1-2 | inactive; multispecies inactive
Nc1ccc(S(=O)(=O)c2ccc(N)cc2)cc1 | active; multisite active

Structure (SMILES) | outcome
Nc1nnc(-c2ccc([N+](=O)[O-])o2)s1 | active; multisite active
CC(=O)N(C(C)=O)c1cccc2c1Cc1ccccc1-2 | active; multisite active
CCCCNC(N)=O | inactive; multisex inactive; multispecies inactive
CC/C(=C(\c1ccccc1)c1ccc(OCCN(C)C)cc1)c1ccccc1 | active; multisite active; multisex active; multispecies active
O=P1(N(CCCl)CCCl)NCCCO1 (centres undefined) | active; multisite active; multisex active; multispecies active
Nc1ccc(Cl)cc1N | active; multisite active; multisex active; multispecies active
Nc1cccc2c(N)cccc12 | active; multisite active; multisex active; multispecies active
CN(CCCC(O)c1cccnc1)N=O (centres undefined) | active; multisite active
S=C=Nc1ccccc1 | inactive; multisex inactive
O=c1c(O)c(-c2ccc(O)cc2)oc2cc(O)cc(O)c12 | inactive; multisex inactive
ClC1=C(Cl)[C@]2(Cl)[C@@H]3[C@@H]4C[C@@H]([C@H]5O[C@@H]45)[C@@H]3[C@@]1(Cl)C2(Cl)Cl | active; multisex active
O=CCBr | inactive; multisex inactive
O=[N+]([O-])c1ccc(-c2cnc3ccccn23)o1 | active; multisite active; multisex active; multispecies active
CN(C)CCN(Cc1ccsc1)c1ccccn1 | inactive; multisex inactive
C#C[C@]1(OC(C)=O)CC[C@H]2[C@@H]3CCC4=C[C@@H](OC(C)=O)CC[C@@H]4[C@H]3CC[C@@]21C | inactive; multispecies inactive
CN(CCO)N=O | active; multisite active
Clc1ccc(Sc2cc(Cl)c(Cl)cc2Cl)cc1 | inactive; multisex inactive
O=C1O[C@H]([C@@H](O)CO)C(O)=C1O | inactive; multisex inactive; multispecies inactive
OCc1ccccc1 | inactive; multisex inactive; multispecies inactive
CCCCC1C(=O)N(c2ccccc2)N(c2ccccc2)C1=O | active; multisite active; multisex active; multispecies active
CCC(Cl)CCC(Cl)C(Cl)CC(Cl)C(Cl)C(Cl)CCl (centres undefined) | active; multisite active; multisex active; multispecies active
CC(=O)C(N=Nc1ccc(Cl)cc1Cl)C(=O)Nc1ccc(-c2ccc(NC(=O)C(N=Nc3ccc(Cl)cc3Cl)C(C)=O)c(C)c2)cc1C (centres undefined) | inactive; multispecies inactive
[O-]/[N+](=N\O)c1ccccc1 | active; multisite active; multisex active; multispecies active
[Cd+2].[Cl-].[Cl-] | active; multisite active; multisex active
c1ccc2sc(SN3CCOCC3)nc2c1 | inactive; multisex inactive

Structure (SMILES) | outcome
CNc1ccc(N(CCO)CCO)cc1[N+](=O)[O-] | active; multisite active; multisex active; multispecies active
COC(=O)C1=C(C)NC(C)=C(C(=O)OCCc2ccc(N3CCN(C(c4ccccc4)c4ccccc4)CC3)cc2)C1c1cccc([N+](=O)[O-])c1 (centres undefined) | inactive; multisex inactive; multispecies inactive
NC(N)=O | inactive; multisex inactive; multispecies inactive
C=C(C)C(=O)OC | inactive; multisex inactive; multispecies inactive
CN(C)C(=S)[S-].CN(C)C(=S)[S-].[Cu+2] | inactive; multisex inactive
Clc1cc2c(cc1Cl)Oc1cc(Cl)c(Cl)cc1O2 | active; multisite active; multisex active; multispecies active
CC(O)CN(CC(C)O)N=O (centres undefined) | active; multisite active; multisex active
C=CC(=C)C | active; multisite active; multisex active; multispecies active
Cc1cccc(Nc2cc(Cl)nc(SCC(=O)NCCO)n2)c1C | active; multisex active; multispecies active
CC(COc1ccc(C(C)(C)C)cc1)OS(=O)OCCCl (centres undefined) | active; multispecies active
C=CCN(CC(O)CO)N=O (centres undefined) | active; multisite active
COc1ccc(OC)c(/C=C/c2ccc(N)cc2)c1 | active; multisite active; multispecies active
O=C(O)CCl | inactive; multisex inactive; multispecies inactive
CC(=O)NNC(C)=O | inactive; multisex inactive
NNc1ccccc1 | active; multisex active
CC(COc1ccccc1)N(CCCl)Cc1ccccc1 (centres undefined) | active; multisex active; multispecies active
ClC(Cl)C(Cl)Cl | active; multisex active
O=C(NCC1CCCCN1)c1cc(OCC(F)(F)F)ccc1OCC(F)(F)F (centres undefined) | inactive; multisex inactive; multispecies inactive
O=C(O)c1ccc(N=Nc2ccc(O)c(C(=O)O)c2)cc1 | inactive; multisex inactive; multispecies inactive
Oc1cccc2cccnc12 | inactive; multisex inactive; multispecies inactive
C=C1C(CCl)(CCl)C2(Cl)C(Cl)C(Cl)C1(Cl)C2(Cl)Cl (centres undefined) | active; multisex active
CCOC(N)=O | active; multisite active; multisex active; multispecies active
C=C1C/C(=C/C)C(=O)O[C@@H]2CCN3CC=C(COC(=O)[C@@]1(O)CO)[C@H]23 | active; multisite active; multisex active; multispecies active
FC(F)(Cl)Cl | inactive; multisex inactive; multispecies inactive
C[C@]12CCC(=O)C=C1CC[C@@H]1[C@@H]2[C@@H](O)C[C@@]2(C)[C@H]1CC[C@]2(O)C(=O)CO | inactive; multisex inactive

Structure (SMILES) | outcome
O=c1ccc(=O)[nH][nH]1 | inactive; multisex inactive; multispecies inactive
CCCN(CCC)N=O | active; multisite active; multispecies active
NC(=O)NC1NC(=O)NC1=O (centres undefined) | inactive; multisex inactive
Oc1ccc2ccccc2c1N=Nc1ccccc1 | active; multisex active
Cc1ccc2c(c1N)C(=O)c1ccccc1C2=O | active; multisite active; multisex active; multispecies active
CCCCN(N)C=O | active; multisite active; multisex active
Cc1cccc(OCC(O)CNC(C)(C)C)c1C (centres undefined) | inactive; multisex inactive
Clc1nc(Cl)nc(Nc2ccccc2Cl)n1 | inactive; multisex inactive; multispecies inactive
Nc1ccc(N=Nc2ccccc2)c(N)n1 | active; multisite active; multisex active; multispecies active
CC(=O)Nc1ccc2c(c1)Cc1ccccc1-2 | active; multisite active; multisex active; multispecies active
O=C(c1ccccc1)C(O)c1ccccc1 (centres undefined) | inactive; multisex inactive; multispecies inactive
O=NN1CCOC1=O | active; multisite active
NNc1nc(-c2ccc([N+](=O)[O-])cc2)cs1 | active; multisite active; multispecies active
CCn1nc(C)c2c1C(c1ccccc1)=NCC(=O)N2 | active; multisex active
CCCNC(=O)NS(=O)(=O)c1ccc(Cl)cc1 | inactive; multisex inactive; multispecies inactive
Nc1nc(N)c2nc(-c3ccccc3)c(N)nc2n1 | active; multisex active
CCCCCCCCCCCC[N+](C)(C)[O-] | inactive; multisex inactive
CN(C)c1ccc(Cc2ccc(N(C)C)cc2)cc1 | active; multisite active; multisex active; multispecies active
CCC[CH2][Sn]([CH2]CCC)([O]C(C)=O)[O]C(C)=O | inactive; multisex inactive; multispecies inactive
C=C(C)[C@H]1CC=C(C)C(=O)C1 | inactive; multisex inactive
Nc1ccc2ccccc2c1 | active; multisite active; multisex active; multispecies active
CCCN(N=O)C(N)=O | active; multisex active
CCN(Cc1cccc(S(=O)(=O)[O-])c1)c1ccc(C(=C2C=CC(=[N+](C)C)C=C2)c2ccc(N(CC)Cc3cccc(S(=O)(=O)O)c3)cc2)cc1 | active; multisite active
Clc1ccc(Cl)cc1 | active; multisite active; multisex active; multispecies active
